Laboratory results as given in patent US7141591B2, “1,2,4-oxadiazole derivatives as hPPAR alpha agonists” (SmithKline Beecham Corporation, priority 2000, dated 2006).

How the values were obtained:
human PPAR gamma = biological target: T1, human PPAR gamma (Homo sapiens, UniProt P37231); assay: Transient transfection (transactivation) assay in CV-1 cells, hPPAR gamma; assay type: cell-based; details: PPAR transactivation activity, GAL4 chimera, concentration giving 50% of maximum activity, read-out: human γEC50
T1 construct: expressed in transfected cells; host or cells: CV-1 cells
T1 sequence (P37231 238-503 limits assumed): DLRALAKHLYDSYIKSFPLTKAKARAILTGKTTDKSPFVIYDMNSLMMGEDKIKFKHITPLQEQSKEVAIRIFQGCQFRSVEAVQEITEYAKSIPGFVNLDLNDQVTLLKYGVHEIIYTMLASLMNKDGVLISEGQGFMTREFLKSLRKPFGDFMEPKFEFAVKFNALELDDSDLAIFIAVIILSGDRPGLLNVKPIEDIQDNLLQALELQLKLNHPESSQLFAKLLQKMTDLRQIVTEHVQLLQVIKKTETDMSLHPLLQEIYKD
Text: (§1) Compounds were screened for functional potency in transient transfection assays in CV-1 cells for their ability to activate the PPAR subtypes (transactivation assay). A previously established chimeric receptor system was utilized to allow comparison of the relative transcriptional activity of the receptor subtypes on the same target gene and to prevent endogenous receptor activation from complicating the interpretation of results. See, for example, Lehmann, J. M.; Moore, L. B.; Smith-Oliver, T. A.; Wilkison, W. O.; Willson, T. M.; Kliewer, S. A., An antidiabetic thiazolidinedione is a high affinity ligand for peroxisome proliferator-activated receptor γ (PPARγ), J. Biol. Chem., 1995, 270, 12953–6. The ligand binding domains for murine and human PPAR alpha, PPAR gamma, and PPAR delta were each fused to the yeast transcription factor GAL4 DNA binding domain. CV-1 cells were transiently transfected with expression vectors for the respective PPAR chimera along with a reporter construct containing five copies of the GAL4 DNA binding site driving expression of secreted placental alkaline phosphatase (SPAP) and β-galactosidase. After 16 h, the medium was exchanged to DME medium supplemented with 10% delipidated fetal calf serum and the test compound at the appropriate concentration. After an additional 24 h, cell extracts were prepared and assayed for alkaline phosphatase and β-galactosidase activity. Alkaline phosphatase activity was corrected for transfection efficiency using the β-galactosidase activity as an internal standard (see, for example, Kliewer, S. A., et. al. Cell 83, 813–819 (1995)). Rosiglitazone (BRL 49653) was used as a positive control in the hPPAR gamma assay. The positive control in the hPPAR alpha assays was 2-methyl-2-[4-{[(4-methyl-2-[4-trifluoromethylphenyl]-thiazol-5-yl-carbonyl)amino]methyl}-phenoxy]propionic acid. The positive control for PPAR delta assays was 2-{2-methyl-4-[({4-methyl-2-{trifluoromethyl)phenyl]-1,3-thiazol-5-yl}methyl)sulfanyl]phenoxy}acetic acid.

human PPAR alpha = biological target: T2, human PPAR alpha (Homo sapiens, UniProt Q07869); assay: Transient transfection (transactivation) assay in CV-1 cells, hPPAR alpha; assay type: cell-based; details: PPAR transactivation activity, GAL4 chimera, concentration giving 50% of maximum activity, read-out: human αEC50
T2 construct: expressed in transfected cells; host or cells: CV-1 cells
T2 sequence (Q07869 239-466 limits assumed): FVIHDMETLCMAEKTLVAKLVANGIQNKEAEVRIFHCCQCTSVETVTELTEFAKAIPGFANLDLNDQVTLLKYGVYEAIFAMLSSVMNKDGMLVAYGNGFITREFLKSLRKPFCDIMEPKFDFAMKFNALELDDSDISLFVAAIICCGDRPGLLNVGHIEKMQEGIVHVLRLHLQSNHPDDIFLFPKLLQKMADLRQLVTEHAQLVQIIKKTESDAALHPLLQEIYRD
Text: as §1

human PPAR delta = biological target: T3, human PPAR delta (Homo sapiens, UniProt Q03181); assay: Transient transfection (transactivation) assay in CV-1 cells, hPPAR delta; assay type: cell-based; details: PPAR transactivation activity, GAL4 chimera, concentration giving 50% of maximum activity, read-out: human δEC50
T3 construct: expressed in transfected cells; host or cells: CV-1 cells
T3 sequence (Q03181 211-439 limits assumed): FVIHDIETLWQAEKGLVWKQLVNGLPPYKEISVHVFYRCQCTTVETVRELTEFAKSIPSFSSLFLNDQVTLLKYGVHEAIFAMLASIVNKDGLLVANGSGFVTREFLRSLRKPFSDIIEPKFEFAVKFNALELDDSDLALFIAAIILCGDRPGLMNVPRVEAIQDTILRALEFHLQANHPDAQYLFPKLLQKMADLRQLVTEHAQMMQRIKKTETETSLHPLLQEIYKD
Text: as §1

| melting point | EC50 (human PPAR gamma) | EC50 (human PPAR alpha) | EC50 (human PPAR delta) | Structure (SMILES) |
| --- | --- | --- | --- | --- |
| 155 to 157 °C | 11400 nM | 24 nM | – | Cc1cc(OCc2nc(-c3ccc(C(C)(C)C)cc3)no2)ccc1OC(C)(C)C(=O)O [Example 10, 2-methyl-2-[4-(3-(4-tert-butyl-phenyl)-[1,2,4]oxadiazol-5-ylmethoxy]-2-methyl-phenoxy]-propionic acid] |
| 138 °C | 10000 nM | 59 nM | 9310 nM | Cc1cc(OCc2nc(-c3ccc(C(C)C)cc3)no2)ccc1OC(C)(C)C(=O)O [Example 11] |
| 170 °C | 4300 nM | 36 nM | 311 nM | Cc1cc(OCc2nc(-c3ccc(C(F)(F)F)cc3)no2)ccc1OC(C)(C)C(=O)O [Example 12, 2-methyl-2-{4-[3-(4-trifluoromethyl-phenyl)-[1,2,4]oxadiazol-5-ylmethoxy]-2-methyl-phenoxy}-propionic acid] |
| 138 to 140 °C | 850 nM | 92 nM | – | CC(C)(Oc1ccc(OCc2nc(-c3ccc(C(C)(C)C)cc3)no2)cc1)C(=O)O [Example 13, 2-methyl-2-[4-(3-(4-tert-butyl-phenyl)-[1,2,4]oxadiazol-5-ylmethoxy]-phenoxy]-propionic acid] |
| 117 °C | 10000 nM | 77 nM | – | CC(C)c1ccc(-c2noc(COc3ccc(OC(C)(C)C(=O)O)cc3)n2)cc1 [Example 14] |
| 164 °C | 10000 nM | 98 nM | 4510 nM | CC(C)(Oc1ccc(OCc2nc(-c3ccc(C(F)(F)F)cc3)no2)cc1)C(=O)O [Example 15, 2-methyl-2-{4-[3-(4-trifluoromethyl-phenyl)-[1,2,4]oxadiazol-5-ylmethoxy]-phenoxy}-propionic acid] |
| – | 10000 nM | 29 nM | 8400 nM | CC(C)c1ccc(-c2nc(COc3ccc(OC(C)(C)C(=O)O)cc3)no2)cc1 [Example 16, 2-methyl-2-{4-[5-(4-isopropyl-phenyl)-[1,2,4]oxadiazol-3-ylmethoxy]-phenoxy}propionic acid] |
| – | 10000 nM | 40 nM | – | CC(C)(Oc1ccc(OCc2noc(-c3ccc(C(C)(C)C)cc3)n2)cc1)C(=O)O [Example 17, 2-methyl-2-{4-[5-(4-tert-butyl-phenyl)-[1,2,4]oxadiazol-3-ylmethoxy]-phenoxy}propionic acid] |
